In paper PMC8839746, “Discovery and Characterization of a Cryptic Secondary Binding Site in the Molecular Chaperone HSP70” (Molecules, 2022):
≈ marks a conversion by molar mass, not a printed value. Read-outs that look alike come from different tables or passages of the source. Each block holds one compound with its values, some of them ahead of it.

Columns and labels:
HSP70 = biological target: HSP70; design: method as in PMID 19256508; conditions: cited from earlier work
HSC70-NBD = biological target: T1, HSC70-NBD (Homo sapiens, UniProt P11142); test: SPR binding to wild-type HSC70-NBD
T1 construct: made in house
T1 sequence (P11142 2-386 limits assumed): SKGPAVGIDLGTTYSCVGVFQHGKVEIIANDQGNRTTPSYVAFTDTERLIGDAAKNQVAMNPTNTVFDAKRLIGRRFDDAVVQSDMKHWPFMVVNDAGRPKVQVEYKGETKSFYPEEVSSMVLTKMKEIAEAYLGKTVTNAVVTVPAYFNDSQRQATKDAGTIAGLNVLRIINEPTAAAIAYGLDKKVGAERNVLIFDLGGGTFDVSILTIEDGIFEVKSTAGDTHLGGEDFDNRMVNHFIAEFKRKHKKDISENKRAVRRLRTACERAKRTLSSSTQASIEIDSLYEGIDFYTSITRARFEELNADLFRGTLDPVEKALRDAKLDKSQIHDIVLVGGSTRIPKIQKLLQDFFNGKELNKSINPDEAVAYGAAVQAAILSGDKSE
Method: (§1) The HSC70-NBD variants used in SPR were produced and purified as previously described. All surface plasmon resonance (SPR) experiments were carried out on a Biacore T100 enhanced to T200 sensitivity (GE Life Sciences, Amersham, UK), and amine coupling chemistry was used to immobilize the proteins on a research grade CM5 sensor chip. The running buffer was phosphate-buffered saline (10-mM NaHPO4-NaH2PO4, pH 7.4, 2.7-mM KCl and 137-mM NaCl), and the chip’s surface was activated for 10 min using a 1:1 mixture of 100-mM N-hydroxysuccinimide and 400-mM 1-ethyl-3-(3-dimethylaminopropyl)-carbodiimide. Wild-type HSC70-NBD and the S275W mutant proteins were injected for 10 min at a concentration of 2 μM in a 10-mM sodium acetate buffer, pH 5.0 with 100-μM ADP as protection for the active site lysines. Finally, the surface was blocked via an injection of 1 M ethanolamine, pH 8.5 for 7 min. The flow rate was maintained at 10 μL/min for all the above procedures. On average, ~12,000 response units (RU) of the wild-type and the mutant proteins were immobilized on the chip. Flow cell one was left unmodified as the reference surface. Following protein immobilization, the running buffer was changed to phosphate-buffered saline containing 0.05% Tween20 (v/v) and 5% DMSO.
(§2) To determine binding constants (KD) for the compounds, all liquid handling was carried out using an ECHO 550 acoustic liquid dispenser (Labcyte, Dublin, Ireland), and compounds were added to 384-well polypropylene V-bottomed plates (Greiner, Stonehouse, UK), which were used as sample plates for the SPR experiments. Fresh 100-mM DMSO stocks of each compound were prepared and used to generate eight-point concentration responses ranging from 25 μM to 1000 μM or from 6.25 μM to 500 μM. For adenosine, the concentration range was 50 μM–2000 μM from a 200-mM stock in DMSO, and for VER155008, a stock solution of 0.25 mM in DMSO was prepared with a concentration range of 0.0625–2.5 μM. The buffer mix was made compatible with the Biacore running buffer, and the experiments were performed at a flow rate of 30 μL/min, a sample injection time of 60 s and a dissociation time of 200 s. The CM5 surface was not regenerated between sample injections. Binding constants (KD) were calculated from the DMSO-corrected and background-normalized binding curves generated from the sensorgrams under equilibrium conditions using the 1:1 binding model in Biacore software version 2 (GE Life Sciences, Amersham, UK).

S275W HSC70-NBD [1] = biological target: T2, S275W HSC70-NBD (Homo sapiens, UniProt P11142, S275W); test: SPR binding to S275W mutant HSC70-NBD
T2 construct: made in house
T2 sequence (P11142 2-386 S275W limits assumed): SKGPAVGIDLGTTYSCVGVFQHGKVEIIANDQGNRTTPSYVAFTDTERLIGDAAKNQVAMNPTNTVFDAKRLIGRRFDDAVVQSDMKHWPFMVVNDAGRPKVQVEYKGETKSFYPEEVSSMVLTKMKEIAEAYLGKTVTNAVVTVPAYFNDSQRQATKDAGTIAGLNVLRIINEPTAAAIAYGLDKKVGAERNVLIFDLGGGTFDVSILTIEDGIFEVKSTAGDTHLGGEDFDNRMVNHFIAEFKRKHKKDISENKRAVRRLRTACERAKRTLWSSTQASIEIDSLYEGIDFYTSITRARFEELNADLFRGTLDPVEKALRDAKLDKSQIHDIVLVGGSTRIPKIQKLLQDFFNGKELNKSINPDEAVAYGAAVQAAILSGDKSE
Method: as §1, §2

HSP72-NBD [2] = system: T3, HSP72-NBD; test: CPMG relaxation-edited ligand-observed 1H NMR binding and ATP competition; design: species or system human
T3 construct: GST (glutathione-S-transferase), PreScission site (N, cleaved yes); made in house; host or cells: BL21-AI E. coli
Method: (§3) To confirm the binding of compounds to HSP72-NBD, a series of CPMG and WaterLOGSY experiments were performed. Compounds were assayed at 200 μM in the presence or absence of 10-μM HSP72-NBD. […] of ATP were also included in the competition experiments. The total assay volume was 200 μL, and the experiments were performed in 3-mm NMR tubes. The buffer was 25-mM Tris, pH 7.5, 50-mM NaCl, 10% D2O and 100 μM of DTT in deionized water. NMR experiments were conducted at a ^1H frequency of 600 MHz using a Bruker Avance 600 spectrometer (Bruker, Bilerica, MA, USA) equipped with a 5-mm TCI Cryo-probe. All data were acquired and processed using Topspin (Bruker, Bilerica, MA, USA) and MNova (Mestrelab Research SL, Santiago de Compostela, Spain). The relaxation-edited 1H-NMR spectrum was acquired at 298 K using the CPMG sequence with a spin-lock time of 600 ms. The water signal was suppressed using pre-saturation during the relaxation delay (2 s) and by using the Watergate sequence subsequent to the CPMG sequence. For each spectrum, 64 transients were acquired.

S275W HSC70-NBD [3] = biological target: T2, S275W HSC70-NBD; design: method as in PMID 27708405; conditions: S275W mutation; cited from earlier work
HSP72-NBD [4] = system: T3, HSP72-NBD; test: waterLOGSY ligand-observed NMR binding; design: species or system human; conditions: ligand 200 μM, HSP72-NBD 10 μM
Method: as §3

[5] = Kinetic solubility in pH 7.4 phosphate buffer by quantitative NMR; format: physicochemical; conditions: phosphate-buffered saline with 5% DMSO, aqueous with cosolvent or surfactant or cyclodextrin, kinetic from dmso stock, NMR method
Method: Nine microliters of a 10-mM DMSO solution of 1 was pipetted into one well of a 384-deep well plate (Greiner, part-no. 781270). one hundred and seventy-one microliters of aqueous buffer (137-mM NaCl, 2.7-mM KCl and 10-mM phosphate buffer solution (pH 7.4)) were pipetted into the same well and mixed 3 times by pipette to give a 500-µM solution of 1 with 5% DMSO. The plate was centrifuged (1000 rpm for 1 min, Eppendorf 5810C) and then sealed and incubated at room temperature for 20 h without shaking. The plate was centrifuged (1000 rpm for 1 min, Eppendorf 5810R), and 165 µL of the supernatant was transferred to a 3-mm NMR tube (Bruker, Part No. Z112272) using a liquid handler SamplePro Tube SJ S (Bruker, Bilerica, MA, USA)). The concentration of 1 was measured by quantitative ^1H-NMR using a single external standard (200-µM caffeine (Sigma C1778, Merck Life Science UK, Gillingham, UK)) in PBS (pH 7.4) with 1% DMSO-d6). NMR data was collected on a Bruker Avance Neo 600 spectrometer equipped with a 5-mm TCI Cryo-probe. The ^1H spectrum was referenced to the internal deuterated solvent. The operating frequency for ^1H was 600 MHz. […] The quantitative ^1H-NMR spectrum was acquired using a Bruker standard 1D lc1pngppsf2 pulse sequence with 32 scans. […] The quantitative 1H-NMR data analysis was carried out in Mnova 14.1 (Mestrelab Research SL, Santiago de Compostela, Spain).

[6] = Aggregation check in LO-NMR experiments; format: physicochemical; conditions: tested concentration 200 µM
Method: as §3

[7] = mean (±SD), n = 3 unless marked n = 2, read-out: HSC70-NBD SPR KD
[8] = n = 2 determinations unless marked single, read-out: HSC70-NBD S275W SPR KD

Structure (SMILES): N#Cc1ccc(COC[C@H]2O[C@@H](n3c(NCc4ccc(Cl)c(Cl)c4)nc4c(N)ncnc43)[C@H](O)[C@@H]2O)cc1 [VER-155008]
- Kd (HSP70): 0.5 µM

Structure (SMILES): NC(=O)N1CCN(c2nc(-c3ccc(C#CCN4CCOCC4)cc3)cs2)CC1 [Compound 3, 4-[4-[4-(3-Morpholinoprop-1-ynyl)phenyl]thiazol-2-yl]piperazine-1-carboxamide]
- Kd (HSC70-NBD; SPR, WT HSC70-NBD, single determination, read-out: KD HSC70-NBD): 388 µM
- Ligand Efficiency (HSC70-NBD; calculated for binding to WT HSC70-NBD): 0.16 kcal/mol per heavy atom
- Kd (S275W HSC70-NBD [1]; SPR, single determination, read-out: KD S275W HSC70): 352 µM
- Change in NMR signal intensity for 3, Peak a (HSP72-NBD [2]; 3 + HSP72-NBD): 41%
- Change in NMR signal intensity for 3, Peak b (HSP72-NBD [2]; 3 + HSP72-NBD): 36%
- Change in NMR signal intensity for 3, Peak c (HSP72-NBD [2]; 3 + HSP72-NBD): 31%
- Change in NMR signal intensity for 3, Peak a (HSP72-NBD [2]; 3 + HSP72-NBD + ATP): 5%
- Change in NMR signal intensity for 3, Peak b (HSP72-NBD [2]; 3 + HSP72-NBD + ATP): 22%
- Change in NMR signal intensity for 3, Peak c (HSP72-NBD [2]; 3 + HSP72-NBD + ATP): 7%

Structure (SMILES): Nc1ncnc2c1ncn2[C@@H]1O[C@H](CO)[C@@H](O)[C@H]1O [adenosine]
- Binding of adenosine to S275W mutant by SPR (S275W HSC70-NBD [3]): abolished

Structure (SMILES): NC(=O)N1CCN(c2nc(-c3ccccc3)cs2)CC1 [Compound 1, 4-(4-Phenylthiazol-2-yl)piperazine-1-carboxamide]
- SPR binding behaviour (Langmuir isotherm) (HSC70-NBD; concentration-response SPR, HSC70-NBD): non-saturating behavior
- Reduction in 1H NMR peak intensity relative to 1 alone, Peak a (HSP72-NBD [2]; 1 (200 μM) + HSP72-NBD (10 μM), thiazole C5 proton): 58%
- Reduction in 1H NMR peak intensity relative to 1 alone, Peak b (HSP72-NBD [2]; 1 + HSP72-NBD): 7%
- Reduction in 1H NMR peak intensity relative to 1 alone, Peak c (HSP72-NBD [2]; 1 + HSP72-NBD): 14%
- Reduction in 1H NMR peak intensity relative to 1 alone, Peak d (HSP72-NBD [2]; 1 + HSP72-NBD): 13%
- Reduction in 1H NMR peak intensity relative to 1 alone, Peak a (HSP72-NBD [2]; 1 + HSP72-NBD + ATP): 8%
- Reduction in 1H NMR peak intensity relative to 1 alone, Peak b (HSP72-NBD [2]; 1 + HSP72-NBD + ATP): 12%
- Reduction in 1H NMR peak intensity relative to 1 alone, Peak c (HSP72-NBD [2]; 1 + HSP72-NBD + ATP): 2%
- Reduction in 1H NMR peak intensity relative to 1 alone, Peak d (HSP72-NBD [2]; 1 + HSP72-NBD + ATP): 2%
- waterLOGSY NOE sign inversion on addition of HSP72-NBD (HSP72-NBD [4]): binding to the protein
- solubility kinetic at 20 h [5]: 291 µM (≈ 83.9 µg/mL)
- Aggregation in LO-NMR experiments [6]: did not show aggregation
- melting point: 131 °C (dec.)

Structure (SMILES): COc1cccc(-c2cc(CNC(=O)c3c(C)oc4c3C(=O)CCC4)on2)c1 [Compound 8]
- Kd (HSC70-NBD; [7]): 99 µM
- Ligand Efficiency (HSC70-NBD; vHTS hits, HSC70-NBD): 0.2 kcal/mol per heavy atom
- Kd (S275W HSC70-NBD [1]; [8]): 86 µM

Structure (SMILES): Nc1ncnc2c1ncn2[C@@H]1O[C@H](COP(=O)(O)OP(=O)(O)O)[C@@H](O)[C@H]1O [ADP]
- Kd (HSP70): 0.5 µM

The next lines start with the values.

- Kd (HSC70-NBD; [7]): 295 µM
- Ligand Efficiency (HSC70-NBD; vHTS hits, HSC70-NBD): 0.19 kcal/mol per heavy atom
- Kd (S275W HSC70-NBD [1]; [8]): 176 µM
Structure (SMILES): CC(C)(O)C#Cc1cccc(C(=O)NCc2ccc(-n3cncn3)cc2)c1 [Compound 5]

- Kd (HSC70-NBD; [7]): 13 µM
- Ligand Efficiency (HSC70-NBD; vHTS hits, HSC70-NBD): 0.24 kcal/mol per heavy atom
- Kd (S275W HSC70-NBD [1]; [8]): 12 µM
Structure (SMILES): c1ccc(-c2ccc(Cn3nnnc3N3CCCC(c4ncc[nH]4)C3)cc2)cc1 (stereo not shown) [Compound 6]

- Kd (HSC70-NBD; [7]): 406 µM
- Ligand Efficiency (HSC70-NBD; vHTS hits, HSC70-NBD): 0.18 kcal/mol per heavy atom
- Kd (S275W HSC70-NBD [1]; [8]): 385 µM
Structure (SMILES): CC(C)c1csc(CCNC(=O)c2cccc(-c3cncc(O)n3)c2)n1 [Compound 4]

- Kd (HSC70-NBD; [7]): 134 µM
- Ligand Efficiency (HSC70-NBD; vHTS hits, HSC70-NBD): 0.21 kcal/mol per heavy atom
- Kd (S275W HSC70-NBD [1]; [8]): 159 µM
Structure (SMILES): CNc1nc(C)cc(-c2cccc(C(=O)NCCc3ccc(C)o3)c2)n1 [Compound 7]
